Results on eight substances are retold here after patent publication US20070203057A1, “COMPOUNDS AND METHODS FOR MODULATING ADHESION MOLECULE FUNCTION” (ADHEREX TECHNOLOGIES, INC., priority 1998, published 2007).

The test system of assay [1] is N-cadherin. Put plainly: Neurite outgrowth of rat neurons on monolayers of 3T3 cells expressing N-cadherin. The format is cell-based. As to conditions: for Percent Inhibition of Neurite Outgrowth on 3T3 Cells Expressing N-cadherin: rat neurons, 20 hours. As for the experimental part:
(§1) Neurons were cultured on monolayers of 3T3 cells transfected with cDNA encoding N-cadherin essentially as described by Doherty and Walsh, Curr. Op. Neurobiol. 4:49-55, 1994; Williams et al., Neuron 13:583-594, 1994; Hall et al., Cell Adhesion and Commun. 3:441-450, 1996; Doherty and Walsh, Mol. Cell. Neurosci. 8:99-111, 1994; Safell et al., Neuron 18:231-242, 1997. Briefly, monolayers of control 3T3 fibroblasts and 3T3 fibroblasts that express N-cadherin were established by overnight culture of 80,000 cells in individual wells of an 8-chamber well tissue culture slide. 3000 cerebellar neurons isolated from post-natal day 3 mouse brains were cultured for 18 hours on the various monolayers in control media (SATO/2% FCS), or media supplemented with various concentrations of the test peptide to be evaluated. The cultures were then fixed and stained for GAP43 which specifically binds to the neurons and their neurites. The length of the longest neurite on each GAP43 positive neuron was then measured by computer assisted morphometry. For each data point, measurements were made from 100-160 neurons, and the given values show the mean +/− the standard error of the mean.
(§2) The ability of different modulating agents to inhibit neurite outgrowth was also evaluated. […] The peptides were tested at different concentrations. Rat neurons were grown for 20 hours on monolayers of either 3T3 cells, or 3T3 cells expressing N-cadherin. The cultures were then fixed, and the mean neurite length was determined by making measurements on at least 150 neurons for each treatment. The results are presented as the percentage inhibition of neurite outgrowth over 3T3 cells expressing N-cadherin.
Similar experiments, illustrated in Table III, were performed to evaluate the effect of various cyclic peptide modulating agents derived from EC1 of human N-cadherin on neurite outgrowth.
(§3) To further evaluate the specificity of these peptide modulating agents, inhibition of neurite outgrowth was assessed, at 100 μg/ml, on monolayers of 3T3 cells transfected with various molecules responsible for neurite outgrowth. The results, shown in Table IV, illustrate a high level of specificity for N-cadherin mediated neurite outgrowth.
Further experiments were performed as described above to assess the activity of peptide modulating agents derived from EC4 of human N-cadherin.

Assay [2] deals with T1, L1 (Homo sapiens, UniProt P32004).
T1 construct: expressed in transfected cells; host or cells: 3T3 cells
T1 sequence (P32004 20-1257): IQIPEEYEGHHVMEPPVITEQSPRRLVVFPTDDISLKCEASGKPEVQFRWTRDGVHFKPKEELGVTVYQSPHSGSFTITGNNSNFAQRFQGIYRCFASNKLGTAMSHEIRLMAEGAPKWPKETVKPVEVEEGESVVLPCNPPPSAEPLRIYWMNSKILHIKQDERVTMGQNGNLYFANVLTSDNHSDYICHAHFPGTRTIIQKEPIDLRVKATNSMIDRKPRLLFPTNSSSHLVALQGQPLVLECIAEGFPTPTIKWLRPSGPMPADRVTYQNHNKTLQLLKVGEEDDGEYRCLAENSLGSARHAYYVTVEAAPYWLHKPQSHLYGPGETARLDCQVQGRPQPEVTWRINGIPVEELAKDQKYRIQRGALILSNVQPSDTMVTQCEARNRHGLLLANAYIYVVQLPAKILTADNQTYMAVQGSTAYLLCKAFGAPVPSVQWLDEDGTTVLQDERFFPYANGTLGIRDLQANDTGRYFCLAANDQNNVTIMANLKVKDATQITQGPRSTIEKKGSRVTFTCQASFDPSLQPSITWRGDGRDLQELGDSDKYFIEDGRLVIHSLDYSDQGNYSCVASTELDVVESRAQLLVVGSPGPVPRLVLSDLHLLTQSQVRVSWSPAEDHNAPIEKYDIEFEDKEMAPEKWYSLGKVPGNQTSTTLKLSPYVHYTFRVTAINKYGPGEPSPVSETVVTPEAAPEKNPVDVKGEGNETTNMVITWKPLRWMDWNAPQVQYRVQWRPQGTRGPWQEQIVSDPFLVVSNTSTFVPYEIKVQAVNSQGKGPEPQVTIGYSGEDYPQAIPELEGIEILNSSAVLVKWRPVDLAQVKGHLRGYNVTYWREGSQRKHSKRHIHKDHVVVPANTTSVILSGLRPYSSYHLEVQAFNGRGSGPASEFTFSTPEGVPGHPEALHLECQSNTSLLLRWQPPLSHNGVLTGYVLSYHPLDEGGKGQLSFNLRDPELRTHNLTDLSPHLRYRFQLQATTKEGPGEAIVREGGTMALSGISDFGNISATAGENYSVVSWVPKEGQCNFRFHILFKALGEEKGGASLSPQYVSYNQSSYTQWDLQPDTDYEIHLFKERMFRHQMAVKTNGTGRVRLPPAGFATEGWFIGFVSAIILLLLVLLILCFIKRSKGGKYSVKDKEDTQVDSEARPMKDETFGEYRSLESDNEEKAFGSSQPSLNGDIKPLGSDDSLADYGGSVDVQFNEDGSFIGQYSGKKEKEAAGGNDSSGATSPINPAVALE
Put plainly: Neurite outgrowth over 3T3 cells transfected with L1. The format is cell-based, rat. As to conditions: 100 μg/ml. As for the experimental part:
as §2, §3

Assay [3] deals with T2, NCAM (Homo sapiens, UniProt P13591).
T2 construct: expressed in transfected cells; host or cells: 3T3 cells
T2 sequence (P13591 20-858, species assumed): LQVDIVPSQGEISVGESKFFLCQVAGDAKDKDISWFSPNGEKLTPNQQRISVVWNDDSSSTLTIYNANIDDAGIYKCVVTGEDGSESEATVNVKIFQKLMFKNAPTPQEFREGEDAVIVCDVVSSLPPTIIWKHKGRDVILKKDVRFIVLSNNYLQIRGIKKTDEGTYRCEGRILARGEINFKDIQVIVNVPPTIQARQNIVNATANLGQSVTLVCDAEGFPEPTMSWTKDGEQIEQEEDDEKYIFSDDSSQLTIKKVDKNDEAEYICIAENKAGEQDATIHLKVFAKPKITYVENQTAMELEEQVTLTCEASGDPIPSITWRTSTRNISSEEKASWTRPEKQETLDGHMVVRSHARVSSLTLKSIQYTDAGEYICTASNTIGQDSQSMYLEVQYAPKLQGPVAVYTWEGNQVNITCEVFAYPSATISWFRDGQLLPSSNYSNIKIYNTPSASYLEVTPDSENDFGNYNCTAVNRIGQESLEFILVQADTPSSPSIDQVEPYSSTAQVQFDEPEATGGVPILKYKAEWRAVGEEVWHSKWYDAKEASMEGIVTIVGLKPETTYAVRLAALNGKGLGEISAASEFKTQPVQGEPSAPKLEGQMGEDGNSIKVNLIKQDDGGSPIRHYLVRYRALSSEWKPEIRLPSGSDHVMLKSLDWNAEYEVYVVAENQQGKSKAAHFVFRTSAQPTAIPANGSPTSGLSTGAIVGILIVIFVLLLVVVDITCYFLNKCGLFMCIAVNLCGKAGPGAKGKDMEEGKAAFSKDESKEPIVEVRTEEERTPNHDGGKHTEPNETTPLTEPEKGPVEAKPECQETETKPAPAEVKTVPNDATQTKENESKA
Put plainly: Neurite outgrowth over 3T3 cells transfected with NCAM. As to conditions: 100 μg/ml. The class given is cell-based, rat. The method, then:
as §2, §3

The target in assay [4] is T2, NCAM. Put plainly: Neurite outgrowth of mouse cerebellar neurons on monolayers of 3T3 cells expressing NCAM. The format is cell-based. Particulars: 250 μg/ml; FIG. 6. The method, then: as §1, with “For each data point, measurements were made from 100-160 neurons, and the given values show the mean +/− the standard error of the mean.” left out
(§4) The mean neurite length was further measured for neurons cultured on monolayers of 3T3 cells, 3T3 cells expressing N-cadherin, 3T3 cells expressing NCAM, and 3T3 cells expressing L1 in media containing the linear peptide H-WLKIDPVNGQI-OH (SEQ ID NO:13; designated N-CAD-CHD2) at a concentration of 250 μg/ml. […]

The target of assay [5] is T1, L1. Put plainly: Neurite outgrowth of mouse cerebellar neurons on monolayers of 3T3 cells expressing L1. The format is cell-based. Particulars: 250 μg/ml; FIG. 6. As for the experimental part: as §1, with “For each data point, measurements were made from 100-160 neurons, and the given values show the mean +/− the standard error of the mean.” left out
as §4

In assay [6] the test system is N-cadherin. The experiment in a line: Neurite outgrowth of mouse cerebellar neurons on monolayers of 3T3 cells expressing N-cadherin. The class given is cell-based. An excerpt:
Within a representative neurite outgrowth assay, neurons may be cultured on a monolayer of cells (e.g., 3T3 fibroblasts) that express N-cadherin. […] For example, neurons may be cultured on monolayers of 3T3 cells transfected with cDNA encoding N-cadherin essentially as described by Doherty and Walsh, Curr. Op. Neurobiol. 4:49-55, 1994; Williams et al., Neuron 13:583-594, 1994; Hall et al., Cell Adhesion and Commun. 3:441-450, 1996; Doherty and Walsh, Mol. Cell. Neurosci. 8:99-111, 1994; and Safell et al., Neuron 18:231-242, 1997. Briefly, monolayers of control 3T3 fibroblasts and 3T3 fibroblasts that express N-cadherin may be established by overnight culture of 80,000 cells in individual wells of an 8-chamber well tissue culture slide. […] The length of the longest neurite on each GAP43 positive neuron may be measured by computer assisted morphometry.
Neurons were cultured on monolayers of 3T3 cells transfected with cDNA encoding N-cadherin essentially as described by Doherty and Walsh, Curr. […] 3000 cerebellar neurons isolated from post-natal day 3 mouse brains were cultured for 18 hours on the various monolayers in control media (SATO/2% FCS), or media supplemented with various concentrations of the test peptide to be evaluated. […] The length of the longest neurite on each GAP43 positive neuron was then measured by computer assisted morphometry. […]

Another assay concerns N-cadherin-Fc chimera. Put plainly: Binding of peptide to flow cell coated with N-cadherin-Fc chimera (human IgG1 control subtracted). As to conditions: 250, 500 or 1000 μg/ml, FIG. 7. An excerpt:
As noted above, native HAV-BM sequences, as well as analogues and mimetics thereof, bind to a classical cadherin, preferably within or near an HAV sequence, and modulate a cadherin-mediated response. The ability to bind to a cadherin sequence may generally be evaluated using any binding assay known to those of ordinary skill in the art. For example, a Pharmacia Biosensor machine may be used, as discussed in Jonsson et al., Biotechniques 11:520-27, 1991. A specific example of the technology that measures the interaction of peptides with molecules can be found in Williams et al., J. Biol. Chem. 272:8539-8545, 1997. Real-time BIA (Biomolecular Interaction Analysis) uses the optical phenomenon surface plasmon resonance to monitor biomolecular interactions. […] Binding to the chip is measured in real-time in arbitrary units of resonance (RU). […]
To determine binding, test analytes (e.g., cadherin peptides, such as HAV-containing peptides) may be placed in running buffer and passed simultaneously over test and control flow cells. […] Specific binding to the derivatized sensor chips may be determined automatically by the system by subtraction of […] flow cell responses. […]

For assay [7], the system named is human ovarian cancer cells (SKOV3). Put plainly: Disruption of tumor cell adhesion in SKOV3 monolayer cultures. The format is cell-based. As to conditions: 1 mg/mL, 24 hours; FIG. 8B. An excerpt:
Within certain cell adhesion assays, the addition of a modulating agent to cells that express a cadherin results in disruption of cell adhesion. A “cadherin-expressing cell,” as used herein, may be any type of cell that expresses at least one cadherin on the cell surface at a detectable level, using standard techniques such as immunocytochemical protocols (e.g., Blaschuk and Farookhi, Dev. Biol. 136:564-567, 1989). Cadherin-expressing cells include endothelial, epithelial and/or cancer cells. For example, such cells may be plated under standard conditions that, in the absence of modulating agent, permit cell adhesion. In the presence of modulating agent (e.g., 500 μg/mL), disruption of cell adhesion may be determined visually within 24 hours, by observing retraction of the cells from one another.
Monolayer cultures of human ovarian cancer cells (SKOV3) were grown in the presence and absence of the peptide N-Ac-INPISGQ-NH2 (SEQ ID NO:22).

A further assay deals with FGFR. The experiment in a line: Neurite outgrowth over 3T3 cells transfected with FGFR. As to conditions: 100 μg/ml. The format is cell-based, rat. As for the experimental part: as §2, §3
Where [8] appears, read: 3 μg/ml, cyclic peptides, Table III.
Setting [9] is: 10 μg/ml, cyclic peptides, Table III.
Where [10] appears, read: 33 μg/ml, cyclic peptides, Table III.
Setting [11] is: 100 μg/ml, cyclic peptides, Table III.
The mark [12] stands for this setting: 11 μg/ml, EC4-derived peptides, Table V.

In general, EC50 refers to the concentration giving half of the maximal effect. Read a high EC50 as lower potency in that assay. For the substance “Ac-CINPIC-NH2 (cysteine pairing not given here)”, the “Percent Inhibition of Neurite Outgrowth” value amounted to 7.5 ± 3.2% in the assay on N-cadherin [1] (setting [8]), 31.5 ± 7.5% with N-cadherin [1] (setting [9]), 56.2 ± 6.9% in the assay with N-cadherin [1] (setting [10]) and 94.5 ± 10.5% in the assay on N-cadherin [1] (setting [11]). Also, the “Percent Inhibition of Neurite Outgrowth over 3T3 Cells Expressing N-cadherin” value with N-cadherin [1] (100 μg/ml, Table IV) is given as 94.5 ± 10.5%. A half-maximal effect with N-cadherin [1] (cyclic peptides, Table III) (EC50) was put at 38.2 µM. In addition, the “Percent Inhibition of Neurite Outgrowth over 3T3 Cells Expressing L1” value on L1 [2] was 7.8 ± 3.8%. In addition, on NCAM [3], the “Percent Inhibition of Neurite Outgrowth over 3T3 Cells Expressing NCAM” value is given as 13.7 ± 7.1%.
Consider “Ac-CINPISC-NH2 (cysteine pairing not given here)”, for which the “Percent Inhibition of Neurite Outgrowth” value is given as 21.8 ± 1.2% in the assay on N-cadherin [1] (setting [9]), 39.5 ± 4.3% in the assay on N-cadherin [1] (setting [10]) and 73.4 ± 2.2% with N-cadherin [1] (setting [11]). This substance returned an EC50 in the assay on N-cadherin [1] (cyclic peptides, Table III) of 38.1 µM.
Regarding H-WLKIDPVNGQI-OH, the “Inhibition of neurite outgrowth on 3T3 cells expressing NCAM” value with NCAM [4] was “Only neurite outgrowth on 3T3 cells expressing N-cadherin was inhibited”. The “Inhibition of neurite outgrowth on 3T3 cells expressing L1” value in the assay with L1 [5] was “Only neurite outgrowth on 3T3 cells expressing N-cadherin was inhibited”. The “Inhibition of neurite outgrowth on 3T3 cells expressing N-cadherin” value in the assay with N-cadherin [6] (250 μg/ml, FIG. 6) is listed as “inhibited”. In addition, the “Inhibition of the N-cadherin neurite outgrowth response” value in the assay with N-cadherin [6] (125 and 250 μg/ml, FIG. 5) was “fully inhibited”. In addition, the “Binding to N-cadherin-Fc chimera coated flow cell” value in the assay with N-cadherin-Fc chimera is “association of the peptide to the flow cell coated with the N-cadherin Fc chimera”.
In the case of “N-Ac-CIDPVNC-NH2 (also: cyclic, type of ring not given here) [cyclic peptide comprising IDPVN, from EC4 of human N-cadherin]”, the “Percent Inhibition of Neurite Outgrowth” value in the assay on N-cadherin [1] (setting [12]) was 15.4 ± 8.9%.
With N-Ac-CINPC-NH2, the “Percent Inhibition of Neurite Outgrowth” value worked out at 17.4 ± 5.7% in the assay on N-cadherin [1] (setting [8]), 51.9 ± 2.5% in the assay with N-cadherin [1] (setting [9]), 71.0 ± 6.5% in the assay on N-cadherin [1] (setting [10]) and 98.1 ± 8.2% in the assay on N-cadherin [1] (setting [11]). Besides, in the assay with N-cadherin [1] (cyclic peptides, Table III), the EC50 stood at 14.3 µM.
Take “N-Ac-IDPVNGQ-NH2 [peptide derived from EC4 of human N-cadherin]”: the “Percent Inhibition of Neurite Outgrowth” value with N-cadherin [1] (setting [12]) came to 0.6 ± 10.0%.
For “N-Ac-INAISGQ-NH2 [control peptide with change in a specific amino acid]”, the “Percent Inhibition of Neurite Outgrowth on 3T3 Cells Expressing N-cadherin” value with N-cadherin [1] (33 μg/ml) is 12.3 ± 6.2%.
In the case of “N-Ac-INPISGQ-NH2 [linear peptide derived from EC1 of human N-cadherin]”, the “Percent Inhibition of Neurite Outgrowth on 3T3 Cells Expressing N-cadherin” value with N-cadherin [1] (3 μg/ml) amounted to 19.5 ± 4.3%; in the assay on N-cadherin [1] (10 μg/ml), 47.8 ± 4.1%; in the assay with N-cadherin [1] (33 μg/ml), 73.0 ± 4.6%. In assay [7], the “Disruption of SKOV3 cell adhesion (morphology)” value was “retract from one another and round-up”. Also, the “Percent Inhibition of Neurite Outgrowth over 3T3 Cells Expressing FGFR” value in the assay with FGFR turned out to be 1.9 ± 5.1%. For the same substance, the “Percent Inhibition of Neurite Outgrowth over 3T3 Cells Expressing L1” value in the assay with L1 [2] came to 0.3 ± 1.8%. Moreover, the “Percent Inhibition of Neurite Outgrowth over 3T3 Cells Expressing NCAM” value with NCAM [3] is 6.2 ± 3.0%.
